Earlier results on one compound are cited in US6579705B2, “Process for preparing non-proteinogenic L-amino acids” (Consortium fur Elektrochemische Industrie GmbH, priority 2001, dated 2003).

The conditions of this series: cited from earlier work.

With `CC(=O)OC[C@H](N)C(=O)O` [O-Acetyl-L-serine], under “pH 4.0”, the stability toward isomerization entry is recorded as “stable”. Also, the “rate of isomerization to N-acetyl-L-serine” value (pH 7.6) is reported as 1 %×min^−1.
